Counter-ions that a name gives are not always drawn.
Target: T1, human A3AR (Homo sapiens, UniProt P0DMS8)
T1 construct: expressed in transfected cells
T1 sequence (P0DMS8 1-318): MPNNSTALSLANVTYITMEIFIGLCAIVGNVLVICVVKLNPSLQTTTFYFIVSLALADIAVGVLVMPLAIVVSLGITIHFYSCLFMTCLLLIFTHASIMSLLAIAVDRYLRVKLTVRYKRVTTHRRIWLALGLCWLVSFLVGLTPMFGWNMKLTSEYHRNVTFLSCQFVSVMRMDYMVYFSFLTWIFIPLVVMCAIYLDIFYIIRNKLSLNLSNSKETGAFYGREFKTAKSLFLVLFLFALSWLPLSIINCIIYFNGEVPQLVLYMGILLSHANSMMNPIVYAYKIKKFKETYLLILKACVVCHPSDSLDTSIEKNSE
Assay: LOPAC library primary screen: single concentration (10 μM) inhibition of 25 nM CA200645 binding, PHERAstar FS
Conditions: not given

SMILES	% 25 nM CA200645 binding [%]
C=CCN1C[C@H](C)N([C@H](c2ccc(C(=O)N(CC)CC)cc2)c2cccc(OC)c2)C[C@H]1C [SNC80]	94.8 ± 9.3
Oc1c2ccccc2c2c3c(cccc13)N=N2 [SP600125]	41.0 ± 10.4
Nc1ncnc2c1ncn2C1CCCO1 (stereo not shown) [SQ 22536]	102.7 ± 4.9
CCc1ccccc1OC[C@@H](O)CN[C@H]1CCCc2ccccc21.O=C(O)C(=O)O [SR 59230A oxalate]	94.8 ± 26.7
CN(C)c1ccc(/C=C2\C(=O)Nc3ccccc32)cc1 [SU 4312]	53.2 ± 16.7
OCc1cc(C(O)CNCCCCCCOCCCCc2ccccc2)ccc1O (stereo not shown) [Salmeterol xinafoate]	92.6 ± 8.3
CCCCCCCCCC[Si](C)(C)CCC(=O)NC(Cc1ccc(C)cc1)c1ccccc1 (stereo not shown) [Sandoz 58-035]	99.6 ± 12.7
C[n+]1cc2c3c(ccc2c2ccc4cc5c(cc4c21)OCO5)OCO3 [Sanguinarine chloride]	38.9 ± 20.6
CCN(CC)CCNC(=O)c1ccc(NS(C)(=O)=O)cc1.Cl.O [Sematilide monohydrochloride monohydrate]	97.5 ± 2.4
Cl.NNC(N)=O [Semicarbazide hydrochloride]	98.7 ± 22.6
C[C@H](O)C(=O)C1=Nc2c(nc(N)[nH]c2=O)NC1 [Sepiapterin]	97.4 ± 20.7
NCCc1c[nH]c2ccc(O)cc12 [Serotonin hydrochloride]	95.8 ± 9.3
CN[C@H]1CC[C@@H](c2ccc(Cl)c(Cl)c2)c2ccccc21 [Sertraline hydrochloride]	101.1 ± 11.7
CCCc1nn(C)c2c(=O)[nH]c(-c3cc(S(=O)(=O)N4CCN(C)CC4)ccc3OCC)nc12.O=C(O)CC(O)(CC(=O)O)C(=O)O [Sildenafil citrate salt]	88.1 ± 8.0
CC(C)(C)C(=O)Oc1ccc(S(=O)(=O)Nc2ccccc2C(=O)NCC(=O)[O-])cc1.[Na+] [Sivelestat sodium salt hydrate]	96.6 ± 6.4
CC(C)COC(=O)OCN1C(=O)CN(CCN2CC(=O)N(COC(=O)OCC(C)C)C(=O)C2)CC1=O [Sobuzoxane]	111.5 ± 7.6
NC(=O)C(=O)O [Sodium Oxamate]	96.5 ± 14.4
NCCCCNCCCN [Spermidine trihydrochloride]	102.2 ± 19.0
NCCCNCCCCNCCCN [Spermine tetrahydrochloride]	105.8 ± 16.0
O=C(CCCN1CCC2(CC1)C(=O)NCN2c1ccccc1)c1ccc(F)cc1 [Spiperone hydrochloride]	85.1 ± 18.3
CC(=O)S[C@@H]1CC2=CC(=O)CC[C@]2(C)[C@H]2CC[C@@]3(C)[C@@H](CC[C@@]34CCC(=O)O4)[C@H]12 [Spironolactone]	94.5 ± 9.9
O=[N+]([O-])c1ccc2c(c1)S(=O)(=O)C=C2 [Stattic]	107.3 ± 19.6
O=C1NCc2c1c1c3ccccc3[nH]c1c1[nH]c3ccccc3c21 [Staurosporine aglycone]	81.9 ± 6.1
C=C1C[C@@]23CC[C@H]4[C@@](C)(CCC[C@@]4(C)C(=O)O)[C@@H]2CC[C@]1(O)C3 [Steviol]	95.9 ± 19.9
C=C1C[C@@]23CC[C@H]4[C@@](C)(CCC[C@@]4(C)C(=O)O[C@@H]4O[C@H](CO)[C@@H](O)[C@H](O)[C@H]4O)[C@@H]2CC[C@]1(O[C@@H]1O[C@H](CO)[C@@H](O)[C@H](O)[C@H]1O[C@@H]1O[C@H](CO)[C@@H](O)[C@H](O)[C@H]1O)C3 [Stevioside]	92.4 ± 13.9
C[N+](C)(C)CCOC(=O)CCC(=O)OCC[N+](C)(C)C [Succinylcholine chloride]	98.6 ± 15.7
CC1=C(CC(=O)O)c2cc(F)ccc2/C1=C\c1ccc(S(C)(=O)=O)cc1 [Sulindac sulfone]	84.5 ± 13.2

SMILES	% 25 nM CA200645 binding [%]
CCN(CC)CCNC(=O)c1c(C)[nH]c(/C=C2\C(=O)Nc3ccc(F)cc32)c1C [Sunitinib malate]	97.4 ± 12.4
CC(=O)/C=C1\C(=O)N(C)c2ccccc21 [Supercinnamaldehyde]	98.9 ± 0.6
Cc1ccc(C(=O)Nc2ccc(S(=O)(=O)[O-])c3cc(S(=O)(=O)[O-])cc(S(=O)(=O)[O-])c23)cc1NC(=O)c1cccc(NC(=O)Nc2cccc(C(=O)Nc3cc(C(=O)Nc4ccc(S(=O)(=O)[O-])c5cc(S(=O)(=O)[O-])cc(S(=O)(=O)[O-])c45)ccc3C)c2)c1.[Na+].[Na+].[Na+].[Na+].[Na+].[Na+] [Suramin sodium salt]	93.4 ± 9.0
O=C(Nc1ccncc1)c1cc([N+](=O)[O-])ccc1Cl [T0070907]	110.9 ± 6.0
Brc1c(Br)c(Br)c2n[nH]nc2c1Br [TBB]	67.4 ± 13.4
Brc1c(Br)c(Br)c2[nH]cnc2c1Br [TBBz]	74.5 ± 15.0
Clc1cnc(Oc2ccc(Oc3ncc(Cl)cc3Cl)cc2)c(Cl)c1 [TCPOBOP]	93.7 ± 8.4
CCN1/C(=C/C(C)=O)Sc2ccc(OC)cc21 [TG003]	77.3 ± 17.0
Cl.O=c1[nH]oc2c1CCNC2 [THIP hydrochloride]	100.3 ± 3.4
CCN(CC)CCCCCCCCOC(=O)c1cc(OC)c(OC)c(OC)c1.Cl [TMB-8 hydrochloride]	95.0 ± 0.4
CCCCCCC(=O)OC1CC(C)(C)NC(C)(C)C1.Cl [TMPH hydrochloride]	95.1 ± 13.7
O=[N+]([O-])c1ccc(CNc2nc(NCc3cccc(C(F)(F)F)c3)nc3nc[nH]c23)cc1 [TNP]	61.8 ± 11.7
CP(=O)(O)C1=CCNCC1 [TPMPA]	99.7 ± 3.7
C/C(=C\c1ccc(C(=O)O)cc1)c1ccc2c(c1)C(C)(C)CCC2(C)C [TTNPB]	92.9 ± 11.5
CC/C(=C(\c1ccccc1)c1ccc(OCCN(C)C)cc1)c1ccccc1 [Tamoxifen]	83.1 ± 23.3
Cc1scc2c1N(C(=O)CN1CCN(C)CC1)c1ccccc1NC2=O [Telenzepine dihydrochloride]	107.0 ± 15.2
CC(C)(C)NCC(O)c1cc(O)cc(O)c1.CC(C)(C)NCC(O)c1cc(O)cc(O)c1.O=S(=O)(O)O (stereo not shown) [Terbutaline hemisulfate]	102.8 ± 10.1
CC(C)(C)c1ccc(C(O)CCCN2CCC(C(O)(c3ccccc3)c3ccccc3)CC2)cc1 (stereo not shown) [Terfenadine]	101.9 ± 5.3
COc1cc2c(cc1OC)C1CC(=O)C(CC(C)C)CN1CC2 (stereo not shown) [Tetrabenazine]	91.3 ± 18.4
CCCCNc1ccc(C(=O)OCCN(C)C)cc1 [Tetracaine hydrochloride]	85.8 ± 26.7
CC[N+](CC)(CC)CC [Tetraethylammonium chloride]	94.7 ± 8.6
CCN(CC)C(=S)SSC(=S)N(CC)CC [Tetraethylthiuram disulfide]	88.1 ± 9.2
c1ccc2c(c1)CCCC2C1=NCCN1 (stereo not shown) [Tetrahydrozoline hydrochloride]	98.2 ± 6.4
c1ccc(C2CN3CCSC3=N2)cc1 (stereo not shown) [Tetramisole hydrochloride]	95.5 ± 22.8
C/C=C(/C)C(=O)O[C@H]1C(C)=C2[C@H]([C@@H]1OC(=O)CCCCCCC)[C@@](C)(OC(C)=O)C[C@H](OC(=O)CCC)[C@@]1(O)[C@H]2OC(=O)[C@@]1(C)O [Thapsigargin]	65.1 ± 10.7
Cn1cnc2c1c(=O)[nH]c(=O)n2C [Theobromine]	101.7 ± 4.5
NC(=S)c1ccc[n+]([C@@H]2O[C@@H](COP(=O)([O-])OP(=O)(O)OC[C@H]3O[C@@H](n4cnc5c(N)ncnc54)C(OP(=O)([O-])O)[C@H]3O)C(O)C2O)c1.[Na+] (stereo partly shown) [Thio-NADP sodium]	101.4 ± 10.4

Same assay, conditions: % of control wells (1% DMSO and 25 nM CA200645); compounds at 10 µM; whole live cells expressing the A3AR; mean ± SD, three experiments in duplicate

SMILES	% 25 nM CA200645 binding [%]
C=C/C(C)=C/[C@@]1(C)SC(=O)C(C)=C1O [Thiolactomycin]	98.5 ± 7.2

Same assay, conditions: compounds tested at 10 µM; % of control wells (1% DMSO and 25 nM CA200645); whole live cells expressing the A3AR; mean ± SD, three experiments in duplicate

SMILES	% 25 nM CA200645 binding [%]
O=C(O)c1ccccc1Nc1cccc(OCc2ccc3ccccc3n2)c1 [SR 2640]	103.1 ± 17.1
O=C1NC(=O)[C@@]2(CCOc3ccc(F)cc32)N1 [Sorbinil]	96.4 ± 14.0
O=C1NCN(c2ccccc2)C12CCN(CC1COc3ccccc3O1)CC2 (stereo not shown) [Spiroxatrine]	112.7 ± 3.0
Nc1ccc(S(=O)(=O)Nc2ccnn2-c2ccccc2)cc1 [Sulfaphenazole]	89.1 ± 34.9
NCCS(=O)(=O)O [Taurine]	106.8 ± 10.4
CCCCCCCCCCCCCCSCC(=O)O [Tetradecylthioacetic acid]	101.3 ± 12.1

From PMC5733478, “A Non-imaging High Throughput Approach to Chemical Library Screening at the Unmodified Adenosine-A3 Receptor in Living Cells” (Frontiers in Pharmacology, 2017)
